{
  "source": "patent US7576108B2",
  "about": "“Substituted arylcyclopropylacetamides as glucokinase activators” (Eli Lilly and Company, priority 2003, dated 2009)",
  "target": "T1, purified recombinant human islet GK (Homo sapiens, UniProt P35557)",
  "T1 construct": "(His)6; made in house; host or cells: E. coli",
  "T1 sequence (P35557 1-465)": "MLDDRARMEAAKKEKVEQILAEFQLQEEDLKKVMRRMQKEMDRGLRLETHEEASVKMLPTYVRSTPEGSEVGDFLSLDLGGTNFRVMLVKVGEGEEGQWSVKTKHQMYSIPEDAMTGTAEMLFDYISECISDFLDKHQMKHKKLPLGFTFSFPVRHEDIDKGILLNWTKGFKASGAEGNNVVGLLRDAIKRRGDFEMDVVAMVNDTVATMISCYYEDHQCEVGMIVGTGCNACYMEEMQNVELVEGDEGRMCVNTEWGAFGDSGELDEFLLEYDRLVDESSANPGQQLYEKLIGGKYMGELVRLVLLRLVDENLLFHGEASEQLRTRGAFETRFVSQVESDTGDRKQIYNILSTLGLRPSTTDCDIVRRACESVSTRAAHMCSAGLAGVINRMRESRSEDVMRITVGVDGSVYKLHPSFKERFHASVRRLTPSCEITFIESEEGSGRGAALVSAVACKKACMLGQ",
  "test": "Enzymatic coupled glucokinase (GK) assay (NADH production, absorbance at 340 nm)",
  "type": "biochemical",
  "conditions": "concentration of activator that produced 50% of maximum increase in the activity of GK; at 10 mM glucose",
  "description": "An enzymatic coupled glucokinase (GK) assay using purified recombinant human islet GK was used to evaluate effects of the activators. In this assay, GK catalyzes glucose phosphorylation in the presence of ATP. The product of this reaction, glucose-6-phosphate, is then oxidized by an excess of glucose-6-dehydrogenase to produce gluconate-6-phosphate with concomitant reduction of NAD^+ to NADH (Davidson and Arion, 1987). The following outlines the two reactions involved: • Glucose+ATP→Glucose-6-P+ADP (Glucokinase) • Glucose-6-P+NAD→Gluconate-6-P+NADH (glucose-6-P dehydrogenase)\nThe NADH production detected by absorbance at 340 nm is used to monitor the enzymatic activity.\nThe human islet GK isoform was expressed in E. coli as (His)6-tagged fusion protein and purified with metal chelate affinity chromatography (Tiedge et al., 1997). After purification the enzyme was stored in aliquots at concentration 0.8 mg/ml in 25 mM NaH2PO4, 150 mM NaCl, 100 mM imidazole, 1 mM DTT, 50% glycerol at −80° C.\nThe assay was performed in flat bottom 96-well plates in a final incubation volume of 100 μl. The incubation mixture consisted of 25 mM HEPES (pH7.4), 50 mM KCl, 2.5 mM MgCl2, 2 mM dithiothreitol, 4 U/ml glucose-6-phosphate dehydrogenase from Leuconostoc mesenteroides, 5 mM ATP, 1 mM NAD and 10 mM glucose. All reagents were from Sigma-Aldrich Co. (St. Louis, Mo.). Test compounds were dissolved in DMSO and then added to the reaction mixture giving the final DMSO concentration of 10%.\nThe reaction was initiated by addition of 20 μl GK and run for 20 min at 37° C. The amount of formed NADH was measured as an increase in absorbance at 340 nm using a microplate reader.\nThe concentration of activator that produced 50% of maximum increase in the activity of GK (EC50) was calculated.",
  "data": [
    {"compound": "CS(=O)(=O)c1ccc([C@@]2(C(=O)Nc3nccs3)C[C@H]2CC2CCCCC2)cc1", "note": "(racemic) [Example 2, (±)-(E)-2-Cyclohexylmethyl-1-(4-methanesulfonyl-phenyl)-cyclopropanecarboxylic acid thiazol-2-ylamide]", "values": [
      {"measurement": "EC50", "value": 1.18, "unit": "µM"}
    ]},
    {"compound": "CC(C)C[C@@H]1C[C@]1(C(=O)Nc1nccs1)c1ccc(S(C)(=O)=O)cc1", "note": "(racemic) [Example 3, (±)-(E)-2-Isobutyl-1-(4-methanesulfonyl-phenyl)-cyclopropanecarboxylic acid thiazol-2-ylamide]", "values": [
      {"measurement": "EC50", "value": 5.46, "unit": "µM"}
    ]},
    {"compound": "CCN(CC)CCCS(=O)(=O)c1ccc([C@@]2(C(=O)Nc3nccs3)C[C@H]2C2CCCCC2)cc1", "note": "(racemic) [Example 7, (±)-(E)-2-Cyclohexyl-1-[4-(3-diethylamino-propane-1-sulfonyl)-phenyl]-cyclopropanecarboxylic acid thiazol-2-ylamide]", "values": [
      {"measurement": "EC50", "value": 0.7, "unit": "µM"}
    ]},
    {"compound": "Cc1nnc(NC(=O)[C@]2(c3ccc(S(C)(=O)=O)cc3)C[C@H]2C2CCCC2)s1", "note": "(racemic) [Example 11, (±)-(E)-2-Cyclopentyl-1-(4-methanesulfonyl-phenyl)-cyclopropanecarboxylic acid (5-methyl-[1,3,4]thiadiazol-2-yl)-amide]", "values": [
      {"measurement": "EC50", "value": 9.32, "unit": "µM"}
    ]},
    {"compound": "Cc1cc(NC(=O)[C@]2(c3ccc(S(C)(=O)=O)cc3)C[C@H]2C2CCCC2)no1", "note": "(racemic) [Example 13, (±)-(E)-2-Cyclopentyl-1-(4-methanesulfonyl-phenyl)-cyclopropanecarboxylic acid (5-methyl-isoxazol-3-yl)-amide]", "values": [
      {"measurement": "EC50", "value": 12.7, "unit": "µM"}
    ]},
    {"compound": "CS(=O)(=O)c1csc([C@@]2(C(=O)Nc3nccs3)C[C@H]2C2CCCC2)c1", "note": "(racemic) [Example 20, (±)-(Z)-2-Cyclopentyl-1-(4-methanesulfonyl-thiophen-2-yl)-cyclopropanecarboxylic acid thiazol-2-ylamide]", "values": [
      {"measurement": "EC50", "value": 1.9, "unit": "µM"}
    ]},
    {"compound": "CS(=O)(=O)c1cccc([C@@]2(C(=O)Nc3nccs3)C[C@H]2C2CCCCC2)c1", "note": "(racemic) [Example 35, (±)-(E)-2-Cyclohexyl-1-(3-methanesulfonyl-phenyl)-cyclopropanecarboxylic acid thiazol-2-ylamide]", "values": [
      {"measurement": "EC50", "value": 7.61, "unit": "µM"}
    ]},
    {"compound": "CS(=O)(=O)c1ccc([C@@]2(C(=O)Nc3nccs3)C[C@H]2C2CCCCC2)cc1C(F)(F)F", "note": "(racemic) [Example 45, (±)-(E)-2-Cyclohexyl-1-(4-methanesulfonyl-3-trifluoromethyl-phenyl)-cyclopropanecarboxylic acid thiazol-2-ylamide]", "values": [
      {"measurement": "EC50", "value": 0.16, "unit": "µM"}
    ]},
    {"compound": "COc1ccc([C@@]2(C(=O)Nc3nccs3)C[C@H]2C2CCCCC2)cc1", "note": "(racemic) [Example 48, (±)-(E)-[2-Cyclohexyl-1-(4-methoxy-phenyl)-cyclopropanecarboxylic acid thiazol-2-ylamide]]", "values": [
      {"measurement": "EC50", "value": 8.69, "unit": "µM"}
    ]},
    {"compound": "CNC(=O)c1ccc([C@@]2(C(=O)Nc3nccs3)C[C@H]2C2CCCCC2)cc1", "note": "(racemic) [Example 50, (±)-(E)4-[2-Cyclohexyl-1-(thiazol-2-ylcarbamoyl)-cyclopropyl]-N-methyl-benzamide]", "values": [
      {"measurement": "EC50", "value": 7.61, "unit": "µM"}
    ]},
    {"compound": "CC(=O)Nc1ccc([C@@]2(C(=O)Nc3nccs3)C[C@H]2C2CCCCC2)cc1", "note": "(racemic) [Example 51, (±)-(E)-1-(4-Acetylamino-phenyl)-2-cyclohexyl-cyclopropanecarboxylic acid thiazol-2-ylamide]", "values": [
      {"measurement": "EC50", "value": 10.5, "unit": "µM"}
    ]},
    {"compound": "CS(=O)(=O)Nc1ccc([C@@]2(C(=O)Nc3nccs3)C[C@H]2C2CCCCC2)cc1", "note": "(racemic) [Example 52, (±)-(E)-2-Cyclohexyl-1-(4-methanesulfonylamino-phenyl)-cyclopropanecarboxylic acid thiazol-2-ylamide]", "values": [
      {"measurement": "EC50", "value": 3.82, "unit": "µM"}
    ]},
    {"compound": "COC(=O)c1ccc([C@@]2(C(=O)Nc3nccs3)C[C@H]2C2CCCC2)cc1", "note": "(racemic) [Example 73, (±)-(E)-4-[2-Cyclopentyl-1-(thiazol-2-ylcarbamoyl)-cyclopropyl]-benzoic acid methyl ester]", "values": [
      {"measurement": "EC50", "value": 3.66, "unit": "µM"}
    ]},
    {"compound": "Cc1cnc(NC(=O)[C@]2(c3ccc(S(C)(=O)=O)cc3)C[C@H]2C2CCCCC2)s1", "note": "(racemic) [Example 77, (±)-(E)-2-Cyclohexyl-1-(4-methanesulfonyl-phenyl)-cyclopropanecarboxylic acid (5-methyl-thiazol-2-yl)-amide]", "values": [
      {"measurement": "EC50", "value": 0.39, "unit": "µM"}
    ]},
    {"compound": "CS(=O)(=O)c1ccc([C@@]2(C(=O)Nc3nccs3)C[C@H]2C2CCCCC2)cc1", "note": "(single isomer, unassigned) [55 (Isomer 1)]", "values": [
      {"measurement": "EC50", "value": 0.15, "unit": "µM"}
    ]},
    {"compound": "CS(=O)(=O)c1ccc(C2(C(=O)Nc3nccs3)C(C3CCCCC3)C2(F)F)cc1", "note": "(single isomer, unassigned) [63 (Isomer 2), (±)-(E)-3-Cyclohexyl-2,2-difluoro-1-(4-methanesulfonyl-phenyl)-cyclopropanecarboxylic acid thiazol-2-ylamide]", "values": [
      {"measurement": "EC50", "value": 5.3, "unit": "µM"}
    ]},
    {"compound": "O=C(Nc1nccs1)[C@]1(c2ccc(S(=O)(=O)NCCc3ccccn3)cc2)C[C@H]1C1CCCC1", "note": "(single isomer, unassigned) [Example 26, (E)-2-Cyclopentyl-1-[4-(2-pyridin-2-yl-ethylsulfamoyl)-phenyl]-cyclopropanecarboxylic acid thiazol-2-ylamide]", "values": [
      {"measurement": "EC50", "value": 0.36, "unit": "µM"}
    ]}
  ]
}
